How the values were obtained:
[1] = tested on: Klebsiella pneumoniae ARLG 1196; test: MIC test of compounds in combination with antibiotics, Klebsiella pneumoniae ARLG 1196; conditions: Klebsiella pneumoniae, ARLG1196
[2] = tested on: Acinetobacter baumannii WX-AB013; test: MIC test of compounds in combination with antibiotics, Acinetobacter baumannii WX-AB013; conditions: Acinetobacter baumannii, WXAB013
Description: (§1) 2-Fold gradient dilution of antibiotics: 300 μL of CAMHVIB medium was added to columns 2-12 of a 96-deep well plate. In column 1, 24 μL of antibiotic stock solution and 576 µL of CAMHB medium were added and mixed well, with a concentration of 512 μg/mL. 300 µL of antibiotic solution was transferred from the column 1 to the second column and mixed well. The process was repeated until column 11, and the column 12 was a blank control.
(§2) Dilution of combined compounds: the compound was diluted 400-fold to 32 μg/ml with CAMHB medium.
(§3) Working solution aliquoting: 25 μL of antibiotics was aliquoted into the 96-U bottom plate with a pipette, and 25 μL of combined compound was added to each well. If antibiotics were used alone, 25 μL of CAMHB medium was added.
(§4) Inoculum solution preparation: 5-6 single colonies were selected from the plate and suspended in normal saline. The bacterial suspension was adjusted to 0.2 (i.e., 0.5 McFarland turbidity, with a bacterial concentration was about 1 to 2×10^8 CFU/mL) with a turbidity meter. The bacterial suspension was diluted 100-fold with CAMHB medium for later use.
(§5) Inoculation: 50 μL of inoculum solution was transferred to the above 50 μL compound plate with a pipette.
(§6) Culture: The 96-U bottom plate was placed in an incubator at 37° C. for 18 to 20 h.

[3] = tested on: Escherichia coli ARLG 2829; test: MIC test of compounds in combination with antibiotics, Escherichia coli ARLG 2829; conditions: Escherichia coli, ARLG2829
Description: (§7) Strain preparation: the strains to be tested were streaked from glycerol tube at −80° C. onto Mueller Hinton II Agar plates. The plates were then placed in a 37° C. incubator and cultured for 18-24 hours.
(§8) Media preparation: CAMHB (Mueller Hinton II Broth): 22 g of powder was dissolved in 1 L of purified water and sterilized at 121° C. for 10 min for use. Saline: 8.5 g NaCl was dissolved in 1 L of pure water and sterilized at 121° C. for 30 min for use.
(§9) Preparation of compound and antibiotic stock solutions: the compound and antibiotic were dissolved in DMSO or water to 12.8 mg/mL.
as §1, §2, §3, §4, §5, §6
(§10) After the incubation, bacterial growth was visually observed, and the test plate was photographed and recorded.

[4] = tested on: Acinetobacter baumannii ARLG-1791 OXA-23; test: MIC test of compounds in combination with antibiotics, Acinetobacter baumannii ARLG-1791; conditions: Acinetobacter baumannii, ARLG1791OXA23
Description: as §1, §2, §3, §4, §5, §6

[5] = tested on: Acinetobacter baumannii ARLG-1809 OXA-23; test: MIC test of compounds in combination with antibiotics, Acinetobacter baumannii ARLG-1809; conditions: Acinetobacter baumannii, ARLG1809OXA23
Description: as §1, §2, §3, §4, §5, §6

[6] = tested on: Klebsiella pneumoniae ATCC BAA-2470; test: MIC test of compounds in combination with antibiotics, Klebsiella pneumoniae ATCC BAA-2470; conditions: Klebsiella pneumoniae, ATCCBAA2470
Description: as §7, §8, §9, §1, §2, §3, §4, §5, §6, §10

[7] = tested on: Acinetobacter baumannii ARLG-1853 OXA-23; test: MIC test of compounds in combination with antibiotics, Acinetobacter baumannii ARLG-1853; conditions: Acinetobacter baumannii, ARLG1853OXA23
Description: as §1, §2, §3, §4, §5, §6

[8] = tested on: Acinetobacter baumannii ARLG-1852 OXA-23; test: MIC test of compounds in combination with antibiotics, Acinetobacter baumannii ARLG-1852; conditions: Acinetobacter baumannii, ARLG1852OXA23
Description: as §1, §2, §3, §4, §5, §6

[9] = tested on: Acinetobacter baumannii WX-AB005; test: MIC test of compounds in combination with antibiotics, Acinetobacter baumannii WX-AB005; conditions: Acinetobacter baumannii, WXAB005
Description: as §1, §2, §3, §4, §5, §6

[10] = tested on: Klebsiella pneumoniae ATCC BAA-1705; test: MIC test of compounds in combination with antibiotics, Klebsiella pneumoniae ATCC BAA-1705; conditions: Klebsiella pneumoniae, ATCCBAA1705
Description: as §7, §8, §9, §1, §2, §3, §4, §5, §6, §10

Structure (SMILES) | MIC [1] [µg/mL] | MIC [2] [µg/mL] | MIC [3] [µg/mL] | MIC [4] [µg/mL] | MIC [5] [µg/mL] | MIC [6] [µg/mL] | MIC [7] [µg/mL] | MIC [8] [µg/mL] | MIC [9] [µg/mL] | MIC [10] [µg/mL]
C[C@@H](O)[C@H]1C(=O)N2C(C(=O)[O-])=C(SC3Cn4cnc[n+]4C3)[C@H](C)[C@H]12 (stereo partly drawn) [Biapenem, biapenem] | 8 | 64 | 16 | 16 | 32 | 4 | 32 | 32 | 32 | 32
CO/N=C(\C(=O)N[C@@H]1C(=O)N2C(C(=O)[O-])=C(C[N+]3(C)CCCC3)CS[C@H]12)c1csc(N)n1 [Cefepime] | > 64 | 32 | > 64 | 128 | 128 | > 128 | 128 | 128 | 64 | > 128
C[C@@H](O)[C@H]1C(=O)N2C(C(=O)O)=C(S[C@@H]3CN[C@H](C(=O)N(C)C)C3)[C@H](C)[C@H]12 [Meropenem] | 128 | 64 | > 128 | > 128 | 32 | 128 | 128 | 128 | > 128 | 128

Reference: patent publication US20250223303A1, “TRICYCLIC BORONIC ACID DERIVATIVE, AND PREPARATION METHOD THEREFOR AND APPLICATION THEREOF” (priority 2021, published 2025)
